Assay results reported in ChEMBL document CHEMBL4507257, “Data for DCP probe ABT-100” (2021).

Assays:
[1] = biological target: Phosphatidylinositol 4-phosphate 5-kinase type-1 alpha (Homo sapiens) (UniProt Q99755); conditions: Compound concentration 1000.0 nM
[2] = biological target: Cyclin-dependent kinase 2 homolog (Plasmodium falciparum (isolate 3D7)) (UniProt P61075); conditions: Compound concentration 1000.0 nM
[3] = biological target: Insulin-like growth factor 1 receptor (Homo sapiens) (UniProt P08069); conditions: Compound concentration 1000.0 nM
[4] = biological target: Protein-tyrosine kinase 6 (Homo sapiens) (UniProt Q13882); conditions: Compound concentration 1000.0 nM
[5] = biological target: Mitogen-activated protein kinase kinase kinase 6 (Homo sapiens) (UniProt O95382); conditions: Compound concentration 1000.0 nM
[6] = biological target: Myotonin-protein kinase (Homo sapiens) (UniProt Q09013); conditions: Compound concentration 1000.0 nM
[7] = biological target: Mitogen-activated protein kinase kinase kinase kinase 2 (Homo sapiens) (UniProt Q12851); conditions: Compound concentration 1000.0 nM
[8] = biological target: Tyrosine-protein kinase FRK (Homo sapiens) (UniProt P42685); conditions: Compound concentration 1000.0 nM
[9] = biological target: Calcium/calmodulin-dependent protein kinase type II subunit alpha (Homo sapiens) (UniProt Q9UQM7); conditions: Compound concentration 1000.0 nM
[10] = biological target: Leukocyte tyrosine kinase receptor (Homo sapiens) (UniProt P29376); conditions: Compound concentration 1000.0 nM
[11] = biological target: Serine/threonine-protein kinase Chk2 (Homo sapiens) (UniProt O96017); conditions: Compound concentration 1000.0 nM
[12] = system: Mast/stem cell growth factor receptor Kit (Homo sapiens), P10721 [V559D,T670I]; conditions: Compound concentration 1000.0 nM
[13] = biological target: Tyrosine-protein kinase ZAP-70 (Homo sapiens) (UniProt P43403); conditions: Compound concentration 1000.0 nM
[14] = biological target: Serine/threonine-protein kinase MRCK beta (Homo sapiens) (UniProt Q9Y5S2); conditions: Compound concentration 1000.0 nM
[15] = biological target: Serine/threonine-protein kinase B-raf (Homo sapiens) (UniProt P15056); conditions: Compound concentration 1000.0 nM
[16] = biological target: Serine/threonine-protein kinase WNK3 (Homo sapiens) (UniProt Q9BYP7); conditions: Compound concentration 1000.0 nM
[17] = biological target: Alpha-2B adrenergic receptor (Homo sapiens) (UniProt P18089); conditions: Compound concentration 10.0 uM
[18] = system: Mast/stem cell growth factor receptor Kit (Homo sapiens), P10721 [L576P]; conditions: Compound concentration 1000.0 nM
[19] = biological target: Serine/threonine-protein kinase RIO3 (Homo sapiens) (UniProt O14730); conditions: Compound concentration 1000.0 nM
[20] = biological target: Casein kinase I isoform gamma-1 (Homo sapiens) (UniProt Q9HCP0); conditions: Compound concentration 1000.0 nM
[21] = biological target: Ribosomal protein S6 kinase alpha-2 (Homo sapiens) (UniProt Q15349); conditions: Compound concentration 1000.0 nM
[22] = biological target: Tyrosine-protein kinase ABL1 (Homo sapiens) (UniProt P00519); conditions: Compound concentration 1000.0 nM
[23] = biological target: Beta-adrenergic receptor kinase 1 (Homo sapiens) (UniProt P25098); conditions: Compound concentration 1000.0 nM
[24] = biological target: 5-hydroxytryptamine receptor 7 (Homo sapiens) (UniProt P34969); conditions: Compound concentration 10.0 uM
[25] = system: Phosphatidylinositol 4,5-bisphosphate 3-kinase catalytic subunit alpha isoform (Homo sapiens), P42336 [Q546K]; conditions: Compound concentration 1000.0 nM
[26] = system: Phosphatidylinositol 4,5-bisphosphate 3-kinase catalytic subunit alpha isoform (Homo sapiens), P42336 [E545K]; conditions: Compound concentration 1000.0 nM
[27] = biological target: Tyrosine-protein kinase Fer (Homo sapiens) (UniProt P16591); conditions: Compound concentration 1000.0 nM
[28] = biological target: 5-hydroxytryptamine receptor 1E (Homo sapiens) (UniProt P28566); conditions: Compound concentration 10.0 uM
[29] = biological target: Serine/threonine-protein kinase 25 (Homo sapiens) (UniProt O00506); conditions: Compound concentration 1000.0 nM
[30] = system: Receptor-type tyrosine-protein kinase FLT3 (Homo sapiens), P36888 [K663Q]; conditions: Compound concentration 1000.0 nM
[31] = biological target: Mitogen-activated protein kinase kinase kinase 20 (Homo sapiens) (UniProt Q9NYL2); conditions: Compound concentration 1000.0 nM
[32] = biological target: Serine/threonine-protein kinase Nek6 (Homo sapiens) (UniProt Q9HC98); conditions: Compound concentration 1000.0 nM
[33] = biological target: Serine/threonine-protein kinase pim-3 (Homo sapiens) (UniProt Q86V86); conditions: Compound concentration 1000.0 nM
[34] = biological target: SRSF protein kinase 2 (Homo sapiens) (UniProt P78362); conditions: Compound concentration 1000.0 nM
[35] = biological target: Activin receptor type-1-like (Homo sapiens) (UniProt P37023); conditions: Compound concentration 1000.0 nM
[36] = system: Serine/threonine-protein kinase B-raf (Homo sapiens), P15056 [V600E]; conditions: Compound concentration 1000.0 nM
[37] = system: Receptor-type tyrosine-protein kinase FLT3 (Homo sapiens), P36888 [D835H]; conditions: Compound concentration 1000.0 nM
[38] = biological target: Protein kinase C eta type (Homo sapiens) (UniProt P24723); conditions: Compound concentration 1000.0 nM
[39] = biological target: Protein kinase C delta type (Homo sapiens) (UniProt Q05655); conditions: Compound concentration 1000.0 nM
[40] = biological target: Cyclin-dependent kinase 19 (Homo sapiens) (UniProt Q9BWU1); conditions: Compound concentration 1000.0 nM
[41] = biological target: Serine/threonine-protein kinase LATS1 (Homo sapiens) (UniProt O95835); conditions: Compound concentration 1000.0 nM
[42] = biological target: Serine/threonine-protein kinase MRCK alpha (Homo sapiens) (UniProt Q5VT25); conditions: Compound concentration 1000.0 nM
[43] = biological target: Serine/threonine-protein kinase LATS2 (Homo sapiens) (UniProt Q9NRM7); conditions: Compound concentration 1000.0 nM
[44] = biological target: Myosin light chain kinase 2, skeletal/cardiac muscle (Homo sapiens) (UniProt Q9H1R3); conditions: Compound concentration 1000.0 nM
[45] = biological target: Ephrin type-A receptor 7 (Homo sapiens) (UniProt Q15375); conditions: Compound concentration 1000.0 nM

Sequence of 5-hydroxytryptamine receptor 7 (Homo sapiens) (P34969 whole entry, canonical isoform): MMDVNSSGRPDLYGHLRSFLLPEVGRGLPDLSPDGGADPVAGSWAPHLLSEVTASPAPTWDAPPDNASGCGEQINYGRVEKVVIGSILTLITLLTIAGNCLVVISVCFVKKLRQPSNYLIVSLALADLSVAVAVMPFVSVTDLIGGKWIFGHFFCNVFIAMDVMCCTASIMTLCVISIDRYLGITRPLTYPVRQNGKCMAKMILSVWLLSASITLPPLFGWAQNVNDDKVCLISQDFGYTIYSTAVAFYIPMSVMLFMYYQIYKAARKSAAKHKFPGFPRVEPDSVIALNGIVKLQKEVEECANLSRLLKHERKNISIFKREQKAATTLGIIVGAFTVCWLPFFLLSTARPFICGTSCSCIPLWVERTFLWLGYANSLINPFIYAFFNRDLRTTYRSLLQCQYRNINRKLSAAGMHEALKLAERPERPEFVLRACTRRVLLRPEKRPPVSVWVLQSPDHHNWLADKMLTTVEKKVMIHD
Sequence of Protein kinase C eta type (Homo sapiens) (P24723 whole entry): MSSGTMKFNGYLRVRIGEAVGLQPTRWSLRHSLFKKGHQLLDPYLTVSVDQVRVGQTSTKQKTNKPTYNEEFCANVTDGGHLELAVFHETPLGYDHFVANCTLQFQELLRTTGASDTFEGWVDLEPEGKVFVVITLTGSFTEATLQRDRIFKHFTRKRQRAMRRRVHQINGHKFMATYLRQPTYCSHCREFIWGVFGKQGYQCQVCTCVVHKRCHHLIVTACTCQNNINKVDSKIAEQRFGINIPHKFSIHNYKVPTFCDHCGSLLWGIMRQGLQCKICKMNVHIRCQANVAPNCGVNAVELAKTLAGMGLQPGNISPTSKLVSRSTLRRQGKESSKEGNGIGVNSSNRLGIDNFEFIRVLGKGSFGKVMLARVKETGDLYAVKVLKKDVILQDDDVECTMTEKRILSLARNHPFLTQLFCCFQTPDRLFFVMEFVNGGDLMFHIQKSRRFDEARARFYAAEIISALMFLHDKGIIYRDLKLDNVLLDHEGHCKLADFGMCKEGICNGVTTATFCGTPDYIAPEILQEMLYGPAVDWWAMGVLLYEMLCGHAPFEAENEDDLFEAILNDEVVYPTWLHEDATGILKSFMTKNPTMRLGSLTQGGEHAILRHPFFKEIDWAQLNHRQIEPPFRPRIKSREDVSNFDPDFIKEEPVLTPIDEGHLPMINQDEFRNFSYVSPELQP
Sequence of Casein kinase I isoform gamma-1 (Homo sapiens) (Q9HCP0 whole entry, looked up, canonical isoform): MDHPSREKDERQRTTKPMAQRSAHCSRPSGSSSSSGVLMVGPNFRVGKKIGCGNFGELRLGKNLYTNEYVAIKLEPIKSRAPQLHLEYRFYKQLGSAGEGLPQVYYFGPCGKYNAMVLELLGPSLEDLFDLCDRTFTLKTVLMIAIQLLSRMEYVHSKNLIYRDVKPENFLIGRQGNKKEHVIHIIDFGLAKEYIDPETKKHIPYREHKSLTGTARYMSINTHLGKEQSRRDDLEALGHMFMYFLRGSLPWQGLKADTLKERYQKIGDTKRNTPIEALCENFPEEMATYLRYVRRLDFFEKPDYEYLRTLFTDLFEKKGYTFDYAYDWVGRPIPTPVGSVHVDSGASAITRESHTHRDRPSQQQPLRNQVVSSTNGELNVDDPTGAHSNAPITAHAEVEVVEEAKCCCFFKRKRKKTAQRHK
Sequence of Cyclin-dependent kinase 19 (Homo sapiens) (Q9BWU1 whole entry): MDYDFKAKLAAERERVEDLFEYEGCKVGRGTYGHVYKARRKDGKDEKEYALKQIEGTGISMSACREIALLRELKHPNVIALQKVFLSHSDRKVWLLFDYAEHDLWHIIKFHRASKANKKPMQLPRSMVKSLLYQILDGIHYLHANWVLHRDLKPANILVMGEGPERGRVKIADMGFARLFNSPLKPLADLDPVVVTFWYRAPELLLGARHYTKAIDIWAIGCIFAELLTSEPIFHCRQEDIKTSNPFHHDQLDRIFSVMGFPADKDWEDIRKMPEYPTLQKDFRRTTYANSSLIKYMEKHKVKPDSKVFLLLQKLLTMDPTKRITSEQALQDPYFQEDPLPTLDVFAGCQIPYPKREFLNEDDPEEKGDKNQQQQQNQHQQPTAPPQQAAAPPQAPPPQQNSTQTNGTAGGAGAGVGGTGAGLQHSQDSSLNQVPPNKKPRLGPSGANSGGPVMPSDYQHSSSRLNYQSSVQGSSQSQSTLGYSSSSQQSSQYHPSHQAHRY
Sequence of Phosphatidylinositol 4,5-bisphosphate 3-kinase catalytic subunit alpha isoform (Homo sapiens), P42336 [Q546K] (P42336 whole entry Q546K, canonical isoform): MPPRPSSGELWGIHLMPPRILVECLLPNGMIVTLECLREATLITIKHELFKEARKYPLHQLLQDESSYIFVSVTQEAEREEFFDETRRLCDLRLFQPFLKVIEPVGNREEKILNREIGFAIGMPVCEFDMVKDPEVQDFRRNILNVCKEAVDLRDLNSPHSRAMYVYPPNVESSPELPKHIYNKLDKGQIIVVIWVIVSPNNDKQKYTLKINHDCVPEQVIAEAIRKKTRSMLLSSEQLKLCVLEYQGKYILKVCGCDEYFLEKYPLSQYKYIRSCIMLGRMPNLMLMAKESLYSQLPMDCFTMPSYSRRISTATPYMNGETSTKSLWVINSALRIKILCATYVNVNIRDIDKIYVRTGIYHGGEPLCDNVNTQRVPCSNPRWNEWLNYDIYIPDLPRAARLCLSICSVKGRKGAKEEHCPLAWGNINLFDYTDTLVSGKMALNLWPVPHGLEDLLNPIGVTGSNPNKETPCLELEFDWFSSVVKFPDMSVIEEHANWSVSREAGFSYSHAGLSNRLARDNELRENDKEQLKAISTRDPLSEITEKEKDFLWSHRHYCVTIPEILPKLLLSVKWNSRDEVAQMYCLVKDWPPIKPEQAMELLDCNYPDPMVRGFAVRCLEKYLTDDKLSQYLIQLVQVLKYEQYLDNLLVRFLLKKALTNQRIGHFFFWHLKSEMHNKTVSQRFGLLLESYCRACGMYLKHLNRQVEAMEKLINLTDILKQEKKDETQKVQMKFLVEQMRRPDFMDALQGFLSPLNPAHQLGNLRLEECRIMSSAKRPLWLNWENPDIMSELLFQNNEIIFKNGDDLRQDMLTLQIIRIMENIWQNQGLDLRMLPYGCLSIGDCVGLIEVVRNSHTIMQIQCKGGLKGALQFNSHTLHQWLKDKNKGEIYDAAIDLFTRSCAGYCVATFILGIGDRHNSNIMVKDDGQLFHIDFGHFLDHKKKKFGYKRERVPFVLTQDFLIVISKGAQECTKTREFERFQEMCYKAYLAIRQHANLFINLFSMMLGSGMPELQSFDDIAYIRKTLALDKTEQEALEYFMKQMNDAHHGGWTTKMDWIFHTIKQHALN
Sequence of Beta-adrenergic receptor kinase 1 (Homo sapiens) (P25098 whole entry): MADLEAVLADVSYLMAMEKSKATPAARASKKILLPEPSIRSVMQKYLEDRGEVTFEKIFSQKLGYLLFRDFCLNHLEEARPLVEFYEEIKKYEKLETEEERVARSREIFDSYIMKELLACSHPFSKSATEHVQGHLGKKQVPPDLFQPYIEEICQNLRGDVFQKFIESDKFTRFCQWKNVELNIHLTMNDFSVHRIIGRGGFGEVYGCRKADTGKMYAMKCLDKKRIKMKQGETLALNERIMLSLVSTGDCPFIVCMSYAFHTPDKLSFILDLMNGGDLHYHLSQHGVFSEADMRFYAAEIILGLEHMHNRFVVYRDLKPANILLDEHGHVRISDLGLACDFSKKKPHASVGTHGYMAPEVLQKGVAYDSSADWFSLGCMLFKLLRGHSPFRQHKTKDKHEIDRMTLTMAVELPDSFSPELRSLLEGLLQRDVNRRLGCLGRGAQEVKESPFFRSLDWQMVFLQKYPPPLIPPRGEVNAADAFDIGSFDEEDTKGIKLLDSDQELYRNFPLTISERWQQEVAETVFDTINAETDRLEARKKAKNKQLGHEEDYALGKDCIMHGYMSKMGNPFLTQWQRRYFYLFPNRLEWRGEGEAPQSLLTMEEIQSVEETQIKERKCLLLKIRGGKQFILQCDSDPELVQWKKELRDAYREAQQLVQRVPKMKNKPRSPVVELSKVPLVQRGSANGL
Sequence of Mitogen-activated protein kinase kinase kinase 20 (Homo sapiens) (Q9NYL2 2-800 limits assumed): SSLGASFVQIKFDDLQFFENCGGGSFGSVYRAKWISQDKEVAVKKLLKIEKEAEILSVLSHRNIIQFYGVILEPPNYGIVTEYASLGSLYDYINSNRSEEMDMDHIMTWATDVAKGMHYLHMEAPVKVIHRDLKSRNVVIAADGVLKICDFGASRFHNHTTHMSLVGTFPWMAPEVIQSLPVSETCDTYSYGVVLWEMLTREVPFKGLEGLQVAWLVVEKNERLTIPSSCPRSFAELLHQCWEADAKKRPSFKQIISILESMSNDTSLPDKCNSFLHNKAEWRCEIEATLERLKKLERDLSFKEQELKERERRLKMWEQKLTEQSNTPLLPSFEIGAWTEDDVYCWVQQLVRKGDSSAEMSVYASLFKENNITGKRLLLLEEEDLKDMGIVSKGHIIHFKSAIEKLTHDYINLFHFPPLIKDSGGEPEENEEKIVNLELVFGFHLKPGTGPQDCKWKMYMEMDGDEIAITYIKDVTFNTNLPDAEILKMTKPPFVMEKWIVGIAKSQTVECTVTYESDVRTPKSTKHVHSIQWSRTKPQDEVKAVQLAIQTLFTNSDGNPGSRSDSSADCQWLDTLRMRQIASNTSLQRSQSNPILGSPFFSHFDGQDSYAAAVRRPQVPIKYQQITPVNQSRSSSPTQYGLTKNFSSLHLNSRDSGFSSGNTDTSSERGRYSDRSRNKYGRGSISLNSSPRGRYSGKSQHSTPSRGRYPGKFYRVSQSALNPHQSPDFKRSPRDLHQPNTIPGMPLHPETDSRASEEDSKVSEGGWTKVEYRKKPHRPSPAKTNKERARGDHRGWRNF
Sequence of 5-hydroxytryptamine receptor 1E (Homo sapiens) (P28566 whole entry): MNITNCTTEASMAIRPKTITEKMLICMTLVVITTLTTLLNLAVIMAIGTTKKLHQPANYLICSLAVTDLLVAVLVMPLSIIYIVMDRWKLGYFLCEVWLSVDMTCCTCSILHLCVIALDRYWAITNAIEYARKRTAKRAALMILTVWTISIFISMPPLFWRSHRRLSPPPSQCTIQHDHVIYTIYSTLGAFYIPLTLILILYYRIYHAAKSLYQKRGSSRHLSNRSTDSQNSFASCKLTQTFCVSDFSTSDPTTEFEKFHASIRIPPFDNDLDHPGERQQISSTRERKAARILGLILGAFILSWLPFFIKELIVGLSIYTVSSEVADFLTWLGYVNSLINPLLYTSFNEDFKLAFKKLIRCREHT

Cn1cncc1[C@](O)(COc1ccc(C#N)cc1-c1ccc(OC(F)(F)F)cc1)c1ccc(C#N)cc1 [ABT-100]
inactive: residual activity [1] 91% | residual activity [2] 77% | residual activity [3] 92% | residual activity [4] 100% | residual activity [5] 76% | residual activity [6] 98% | residual activity [7] 100% | residual activity [8] 100% | residual activity [9] 95% | residual activity [10] 91% | residual activity [11] 100% | residual activity [12] 84% | residual activity [13] 78% | residual activity [14] 76% | residual activity [15] 84% | residual activity [16] 100% | inhibition [17] 8.46% | residual activity [18] 100% | residual activity [19] 95% | residual activity [20] 90% | residual activity [21] 89% | residual activity [22] 100% | residual activity [23] 74% | inhibition [24] 9.15% | residual activity [25] 82% | residual activity [26] 97% | residual activity [27] 83% | inhibition [28] 1.11% | residual activity [29] 91% | residual activity [30] 90% | residual activity [31] 100% | residual activity [32] 95% | residual activity [33] 89% | residual activity [34] 100% | residual activity [35] 100% | residual activity [36] 82% | residual activity [37] 84% | residual activity [38] 94% | residual activity [39] 66% | residual activity [40] 84% | residual activity [41] 87% | residual activity [42] 78% | residual activity [43] 100% | residual activity [44] 78% | residual activity [45] 91%

Cn1cncc1[C@@](O)(COc1ccc(C#N)cc1-c1ccc(OC(F)(F)F)cc1)c1ccc(C#N)cc1 [A-108]
inactive: residual activity [1] 87% | residual activity [2] 69% | residual activity [3] 100% | residual activity [4] 100% | residual activity [5] 100% | residual activity [6] 94% | residual activity [7] 100% | residual activity [8] 100% | residual activity [9] 84% | residual activity [10] 100% | residual activity [11] 96% | residual activity [12] 82% | residual activity [13] 100% | residual activity [14] 95% | residual activity [15] 100% | residual activity [16] 100% | inhibition [17] 20% | residual activity [18] 95% | residual activity [19] 90% | residual activity [20] 91% | residual activity [21] 100% | residual activity [22] 96% | residual activity [23] 95% | inhibition [24] 15% | residual activity [25] 85% | residual activity [26] 80% | residual activity [27] 100% | inhibition [28] 7.11% | residual activity [29] 95% | residual activity [30] 64% | residual activity [31] 85% | residual activity [32] 95% | residual activity [33] 100% | residual activity [34] 55% | residual activity [35] 100% | residual activity [36] 100% | residual activity [37] 67% | residual activity [38] 95% | residual activity [39] 100% | residual activity [40] 64% | residual activity [41] 100% | residual activity [42] 81% | residual activity [43] 100% | residual activity [44] 100% | residual activity [45] 100%
